According to patent publication US4365989A, “2-Thiocyanomethylthio-4,4-dialkyl-5-substituted-thiazoline fungicides” (Chevron Research Company, priority 1982, dated 1982):

Legend:
[1] = system: Watergrass (Ethinochloa crusgalli); assay: Pre-emergent herbicidal test, Watergrass; type: in vivo; settings: 504 h; pre-emergence; 33 micrograms/cm^2; 3 weeks
Procedure: (§1) An acetone solution of the test compound was prepared by mixing 750 mg of the compound, 220 mg of a nonionic surfactant and 25 ml of acetone. This solution was added to approximately 125 ml of water containing 156 mg of surfactant.
(§2) Seeds of the test vegetation were planted in a pot of […] and the test solution was sprayed uniformly onto the soil surface at a dose of 33 micrograms/cm^2. The pot was watered and placed in a greenhouse. […] At the end of this period, the herbicidal effectiveness of the compound was rated based on the physiological observations. A 0-to-100 scale was used, 0 representing no phytotoxicity, 100 representing complete kill.

Plasmopara viticola = assay: Grape Downy Mildew control, detached grape leaves; type: in vivo; settings: in Vitis vinifera, Vitis vinifera Emperor detached leaves, read-out: % Control Grape D.M.
Procedure: The compounds of the invention were tested for the control of the grape downy mildew organism Plasmopara viticola. Detached leaves, between 70 and 85 mm in diameter, of 7-week old Vitis vinifera cultivar Emperor grape seedlings were used as hosts. The leaves were sprayed with a 250 ppm solution of the test compound in acetone. The sprayed leaves were dried, inoculated with a spore suspension of the organism, placed in a humid environmental chamber and incubated at 66° to 68° F. and about 100% relative humidity. After incubation for two days, the plants were then held in a greenhouse seven to nine days; then the amount of disease control was determined. The percent disease control provided by a given gest compound was based on the percent disease reduction relative to untreated check plants.

Aspergillus Niger = assay: Mycelial inhibition, Aspergillus; type: cell-based; settings: 24 hours, relative to standard DIFOLATAN, read-out: Mycelial inhibition, % Standard, Asper.
Procedure: (§3) A number of the compounds of the present invention were evaluated for in-vitro fungicidal effectiveness by means of a mycelial inhibition test. This test is designed to measure the fungitoxic activity of fungicidal chemicals in terms of their degree of inhibition of mycelium growth. Each compound to be tested was dissolved in acetone to 500 ppm concentration. Paper strips were infused with the particular mycelium growth by covering the paper with a potato dextrose broth culture of mycelial suspension. The papers were then placed on potato dextrose agar plates and sprayed by means of a microsprayer with the fungicidal solution. The treated paper strips were incubated at 25° C. and the data is taken after 24 hours. Fungicidal activities are measured by a zone of inhibited mycelial growth from the center of the paper strip. The effectiveness of the compounds tested for fungicidal activity is reported in Table IIa for those compounds which were effective in inhibiting mycelial growth. The activity is reported in terms of [formula]

Soybean [2] = assay: Post-emergent herbicidal test, Soybean; type: in vivo; settings: Glycine max, 504 h; post-emergence; 33 micrograms/cm^2; 3 weeks; read-out: Herbicidal Activity Post-Emergence % Control Soybean
[3] = system: Pigweed (Amaranthus retraflexus); assay: Post-emergent herbicidal test, Pigweed; type: in vivo; settings: 504 h, post-emergence, 33 micrograms/cm^2, 3 weeks
[4] = system: Mustard (Brassica arvensis); assay: Pre-emergent herbicidal test, Mustard; type: in vivo; settings: 504 h, pre-emergence, 33 micrograms/cm^2, 3 weeks
Procedure: as §1, §2

[5] = system: Pigweed (Amaranthus retraflexus); assay: Pre-emergent herbicidal test, Pigweed; type: in vivo; settings: 504 h, pre-emergence, 33 micrograms/cm^2, 3 weeks
Procedure: as §1, §2

Phytophthora infestans = assay: whole plant or invertebrate; type: in vivo; settings: in Solanum lycopersicum, read-out: % Control Tom. L. Bl.
[6] = system: Crabgrass (Digitaria sanguinalis); assay: Post-emergent herbicidal test, Crabgrass; type: in vivo; settings: 504 h, post-emergence, 33 micrograms/cm^2, 3 weeks
[7] = system: Lambsquarter (Chenopodium album); assay: Post-emergent herbicidal test, Lambsquarter; type: in vivo; settings: 504 h, post-emergence, 33 micrograms/cm^2, 3 weeks, read-out: Herbicidal Activity Post-Emergence % Control L'Qtr.
Elodea canadensis = assay: Aquatic weeds control, Elodea; type: in vivo; settings: 7 to 10 days, read-out: Algicidal Activity % Control Elodea
Procedure: (§4) Representative compounds of the invention were tested as aquatic herbicides and algicides by the following method. The weed test species were Lemna minor, Elodea canadensis and the algae used was Spirulina maxima.
(§5) An acetone solution of the test compound and a small amount of an alkylarylpolyoxyethylene glycol-containing surfactant was prepared. This solution was mixed with a nutrient solution in quantity sufficient to give a concentration of 2 ppm. Eight oz. plastic cups were filled with 150 ml of this solution. A sample of the test, Lemna and Elodea, was added together to each cup. Forty ml of Spirulina culture with the 2 ppm treatment was placed in 11/2 oz plastic cups (#4 glass vials used after June 9, 1980). The containers were then placed in an illuminated environment maintained at a temperature of about 20° C. for incubation. The containers were observed periodically for growth (as compared to an untreated check). The effectiveness of the test compound was determined based on a final observation of growth after 7 to 10 days. The results of the test on a 0-to-100 basis--0 indicating no effectiveness and 100 indicating complete effectiveness--are reported in Table IV.

[8] = system: Mustard (Brassica arvensis); assay: Post-emergent herbicidal test, Mustard; type: in vivo; settings: 504 h, post-emergence, 33 micrograms/cm^2, 3 weeks
Fusarium Moniliforme = assay: Mycelial inhibition, Fusarium; type: cell-based; settings: Fusarium verticillioides, 24 hours, relative to standard DIFOLATAN
Procedure: as §3

[9] = system: Crabgrass (Digitaria sanguinalis); assay: Pre-emergent herbicidal test, Crabgrass; type: in vivo; settings: 504 h, pre-emergence, 33 micrograms/cm^2, 3 weeks
Procedure: as §1, §2

Pythium Ultimum = assay: Mycelial inhibition, Pythium; type: cell-based; settings: Globisporangium ultimum, 24 hours, relative to standard DIFOLATAN
Procedure: as §3

Soybean [10] = assay: Pre-emergent herbicidal test, Soybean; type: in vivo; settings: Glycine max, 504 h; pre-emergence; 33 micrograms/cm^2; 3 weeks; read-out: Herbicidal Activity Pre-Emergence % Control Soybean
Procedure: as §1, §2

Lemna minor = assay: Aquatic weeds control, Lemna; type: in vivo; settings: 7 to 10 days, read-out: Algicidal Activity % Control Lemna
Procedure: as §4, §5

Rhizoctonia solani = assay: Mycelial inhibition, Rhizoctonia; type: cell-based; settings: 24 hours, relative to standard DIFOLATAN, read-out: Mycelial inhibition, % Standard, Rhizoc.
Procedure: as §3

Spirulina maxima = assay: Algae control, Spirulina; type: cell-based; settings: Limnospira maxima, 7 to 10 days, read-out: Algicidal Activity % Control Spirulina
Procedure: as §4, §5

Septoria apii = type: in vivo; settings: 250 ppm; celery (Utah) plants
Botrytis Cineria = assay: Mycelial inhibition, Botrytis; type: cell-based; settings: 24 hours, relative to standard DIFOLATAN
Procedure: as §3

[11] = system: Watergrass (Ethinochloa crusgalli); assay: Post-emergent herbicidal test, Watergrass; type: in vivo; settings: 504 h; post-emergence; 33 micrograms/cm^2; 3 weeks
[12] = system: Lambsquarter (Chenopodium album); assay: Pre-emergent herbicidal test, Lambsquarter; type: in vivo; settings: 504 h, pre-emergence, 33 micrograms/cm^2, 3 weeks, read-out: Herbicidal Activity Pre-Emergence % Control L'Qtr.
Procedure: as §1, §2

SMILES	pest or weed control at 33 µg/cm2 [1]	pest or weed control at 250 ppm (Plasmopara viticola)	inhibition at 500 ppm (Aspergillus Niger)	plant injury at 33 µg/cm2 (Soybean [2])	pest or weed control at 33 µg/cm2 [3]	pest or weed control at 33 µg/cm2 [4]	pest or weed control at 33 µg/cm2 [5]	pest or weed control at 250 ppm (Phytophthora infestans)	pest or weed control at 33 µg/cm2 [6]	pest or weed control at 33 µg/cm2 [7]	activity at 2 ppm (Elodea canadensis)	pest or weed control at 33 µg/cm2 [8]	inhibition at 500 ppm (Fusarium Moniliforme)	pest or weed control at 33 µg/cm2 [9]	inhibition at 500 ppm (Pythium Ultimum)	plant injury at 33 µg/cm2 (Soybean [10])	activity at 2 ppm (Lemna minor)	inhibition at 500 ppm (Rhizoctonia solani)	activity at 2 ppm (Spirulina maxima)	% Control Cel. L. Bl. (Septoria apii)	also measured
CC1(C)N=C(SCSC#N)SC1=CCl [Compound 3]	0%	79%	69%	0%	0%	15%	35%	21%	0%	0%	90%	0%	115%	0%	40%	0%	40%	55%	40%	15%	inhibition at 500 ppm (Botrytis Cineria): 64%; pest or weed control at 33 µg/cm2 [11]: 0%; pest or weed control at 33 µg/cm2 [12]: 25%
CC1(C)N=C(SCSC#N)SC1=CBr [Compound 4]	0%	100%	63%	0%	0%	0%	0%	0%	0%	0%	80%	0%	77%	0%	14%	0%	35%	92%	30%	23%	inhibition at 500 ppm (Botrytis Cineria): 36%; pest or weed control at 33 µg/cm2 [11]: 0%; pest or weed control at 33 µg/cm2 [12]: 0%
